From ChEMBL document CHEMBL1201862, “PubChem BioAssay data set” (2004)
Calls of active or inactive are those of the source.

How the values were obtained:
[1] = biological target: T1, Tyrosine-protein phosphatase non-receptor type 22 (Homo sapiens, UniProt Q9Y2R2); experiment: SAR LYP1 Fluorescent Assay using pCAP substrate for In Vitro dose response studies - Set 2. [Related pubchem assays (depositor defined):AID1779, AID1784, AID2135, AID449727]; type: functional
T1 sequence (Q9Y2R2 whole entry): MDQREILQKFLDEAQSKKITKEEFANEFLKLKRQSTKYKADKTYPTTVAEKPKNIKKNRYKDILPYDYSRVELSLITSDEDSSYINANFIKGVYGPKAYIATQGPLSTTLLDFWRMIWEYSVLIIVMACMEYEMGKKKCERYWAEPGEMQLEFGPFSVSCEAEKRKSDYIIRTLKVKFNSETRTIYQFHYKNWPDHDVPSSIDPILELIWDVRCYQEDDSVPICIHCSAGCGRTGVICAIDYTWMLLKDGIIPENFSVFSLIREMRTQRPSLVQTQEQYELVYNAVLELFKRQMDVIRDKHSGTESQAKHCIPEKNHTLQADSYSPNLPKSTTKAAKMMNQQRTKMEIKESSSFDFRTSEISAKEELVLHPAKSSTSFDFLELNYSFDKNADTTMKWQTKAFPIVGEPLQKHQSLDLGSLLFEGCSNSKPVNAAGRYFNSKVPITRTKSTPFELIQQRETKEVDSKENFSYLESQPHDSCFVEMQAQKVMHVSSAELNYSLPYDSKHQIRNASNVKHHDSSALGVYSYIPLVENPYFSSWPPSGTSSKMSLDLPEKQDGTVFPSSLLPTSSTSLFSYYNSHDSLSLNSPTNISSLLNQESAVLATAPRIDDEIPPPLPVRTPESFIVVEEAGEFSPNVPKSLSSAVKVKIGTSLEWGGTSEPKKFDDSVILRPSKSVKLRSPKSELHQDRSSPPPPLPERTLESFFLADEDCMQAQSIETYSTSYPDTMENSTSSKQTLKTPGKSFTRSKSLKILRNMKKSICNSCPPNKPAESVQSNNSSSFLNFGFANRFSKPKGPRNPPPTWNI

[2] = biological target: Tyrosine-protein phosphatase non-receptor type 12 (Homo sapiens, UniProt Q05209); experiment: SAR Selectivity Analysis of small molecule inhibitors of PEST using pCAP in a fluorescence assay. [Related pubchem assays (depositor defined):AID1779, AID1784, AID2135]; type: functional
[3] = biological target: T1, Tyrosine-protein phosphatase non-receptor type 22; experiment: SAR LYP1 Fluorescent Assay using OMFP substrate for In Vitro dose response studies - Set 3. [Related pubchem assays (depositor defined):AID1779, AID1784, AID2140, AID2686]; type: functional
[4] = biological target: T2, Tyrosine-protein phosphatase non-receptor type 7 (Homo sapiens, UniProt P35236); experiment: HePTP (PTPN7) phosphatase inhibitor potency, SAR follow-up, biochemical, set 2 (AID 449736); type: functional
T2 sequence (P35236 whole entry): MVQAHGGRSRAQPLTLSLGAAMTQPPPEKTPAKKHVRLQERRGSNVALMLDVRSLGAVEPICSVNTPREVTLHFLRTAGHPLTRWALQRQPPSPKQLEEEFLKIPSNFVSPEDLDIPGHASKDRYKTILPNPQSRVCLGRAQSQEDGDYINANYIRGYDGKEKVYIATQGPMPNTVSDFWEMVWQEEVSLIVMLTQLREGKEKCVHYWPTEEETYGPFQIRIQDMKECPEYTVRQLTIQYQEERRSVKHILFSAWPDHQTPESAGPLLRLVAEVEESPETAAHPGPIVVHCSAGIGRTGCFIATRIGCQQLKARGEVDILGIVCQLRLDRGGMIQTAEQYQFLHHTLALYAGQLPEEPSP

[5] = biological target: T1, Tyrosine-protein phosphatase non-receptor type 22; experiment: SAR LYP1 Fluorescent Assay using OMFP substrate for In Vitro dose response studies - Set 2. [Related pubchem assays (depositor defined):AID1779, AID1784, AID2140, AID449726, AID488869]; type: functional
[6] = biological target: Kappa-type opioid receptor (Homo sapiens, UniProt P41145); experiment: SAR analysis of small molecule agonists of the kappa opioid receptor via a luminescent beta-arrestin assay - Set 3. [Related pubchem assays (depositor defined):AID1777, AID1785, AID1786, AID1966, AID2133, AID2136, AID2284, AID2500]; type: functional
[7] = biological target: T3, Hexokinase HKDC1 (Homo sapiens, UniProt Q2TB90); experiment: HKDC1 hexokinase activators, dose response, biochemical, W721R variant (AID 504730); type: functional
T3 sequence (Q2TB90 whole entry): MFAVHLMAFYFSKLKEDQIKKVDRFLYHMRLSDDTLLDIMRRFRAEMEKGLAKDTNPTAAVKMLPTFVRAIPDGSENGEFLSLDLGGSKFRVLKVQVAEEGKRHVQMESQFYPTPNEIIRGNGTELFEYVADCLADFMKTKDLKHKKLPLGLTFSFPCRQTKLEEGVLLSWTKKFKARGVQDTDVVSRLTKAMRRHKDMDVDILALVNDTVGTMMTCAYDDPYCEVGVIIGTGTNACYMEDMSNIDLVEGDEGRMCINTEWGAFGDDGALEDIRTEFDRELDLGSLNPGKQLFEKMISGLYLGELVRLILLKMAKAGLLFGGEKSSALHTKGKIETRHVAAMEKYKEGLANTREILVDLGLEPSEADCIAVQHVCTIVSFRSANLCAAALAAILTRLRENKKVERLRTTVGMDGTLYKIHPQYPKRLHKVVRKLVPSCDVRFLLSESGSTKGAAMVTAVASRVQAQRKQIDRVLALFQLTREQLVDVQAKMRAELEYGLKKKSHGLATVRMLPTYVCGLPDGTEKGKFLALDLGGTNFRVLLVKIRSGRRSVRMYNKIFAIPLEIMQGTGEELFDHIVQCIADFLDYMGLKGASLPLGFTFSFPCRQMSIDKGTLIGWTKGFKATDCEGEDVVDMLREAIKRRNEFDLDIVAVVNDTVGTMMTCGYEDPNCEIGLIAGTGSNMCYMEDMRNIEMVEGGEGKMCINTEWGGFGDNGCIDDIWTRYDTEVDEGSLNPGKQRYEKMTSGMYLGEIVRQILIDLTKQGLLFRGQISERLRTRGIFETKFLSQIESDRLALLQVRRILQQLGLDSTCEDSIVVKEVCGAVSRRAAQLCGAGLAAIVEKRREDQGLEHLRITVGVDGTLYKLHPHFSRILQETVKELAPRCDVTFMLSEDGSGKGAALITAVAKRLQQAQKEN

[8] = biological target: T4, Hexokinase-1 (Homo sapiens, UniProt P19367); experiment: hexokinase 1 activators, dose response, selectivity assay for HKDC1 activator project, biochemical (AID 504762); type: functional
T4 sequence (P19367 whole entry): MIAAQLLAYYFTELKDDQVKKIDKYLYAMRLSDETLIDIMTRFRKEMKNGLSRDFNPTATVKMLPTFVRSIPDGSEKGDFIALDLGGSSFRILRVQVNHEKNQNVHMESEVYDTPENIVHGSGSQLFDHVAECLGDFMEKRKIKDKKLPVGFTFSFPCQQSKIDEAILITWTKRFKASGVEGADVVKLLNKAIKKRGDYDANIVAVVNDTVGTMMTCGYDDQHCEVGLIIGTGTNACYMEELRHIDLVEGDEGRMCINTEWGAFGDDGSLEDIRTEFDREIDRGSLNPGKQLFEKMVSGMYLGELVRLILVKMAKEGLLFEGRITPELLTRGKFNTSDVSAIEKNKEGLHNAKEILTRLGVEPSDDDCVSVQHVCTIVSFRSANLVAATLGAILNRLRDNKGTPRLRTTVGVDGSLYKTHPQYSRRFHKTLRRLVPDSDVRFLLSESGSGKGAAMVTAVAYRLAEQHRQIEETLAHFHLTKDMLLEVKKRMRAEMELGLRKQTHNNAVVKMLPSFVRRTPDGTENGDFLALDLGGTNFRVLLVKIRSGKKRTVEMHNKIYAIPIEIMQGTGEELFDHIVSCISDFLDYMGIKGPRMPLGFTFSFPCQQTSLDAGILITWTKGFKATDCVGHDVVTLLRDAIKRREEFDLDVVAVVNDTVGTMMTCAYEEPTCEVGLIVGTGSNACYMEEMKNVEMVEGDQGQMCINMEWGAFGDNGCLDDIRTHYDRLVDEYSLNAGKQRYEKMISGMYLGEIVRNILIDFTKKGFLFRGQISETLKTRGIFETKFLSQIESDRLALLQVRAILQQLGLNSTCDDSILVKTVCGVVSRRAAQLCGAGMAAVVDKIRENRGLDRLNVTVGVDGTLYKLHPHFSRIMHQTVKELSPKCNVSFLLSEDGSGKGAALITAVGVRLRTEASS

[9] = test system: Streptococcus sp. 'group A'; experiment: growth inhibition of control SK(-) GAS strain, dose response, counter-screen for streptokinase expression inhibitor project, luminescence, kanamycin, BacTiterGlo, confirmation (AID 1900); type: functional, organism-based
[10] = biological target: T5, Streptokinase A (Streptococcus pyogenes serotype M1, UniProt P10520); experiment: S. pyogenes streptokinase expression inhibitors, potency, dose response, plasminogen activation absorbance, OD405 (AID 1914); type: functional, Streptococcus pyogenes M1 GAS;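 also: secreted streptokinase activity via plasminogen activation per viability signal from cell pellet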
T5 sequence (P10520 whole entry): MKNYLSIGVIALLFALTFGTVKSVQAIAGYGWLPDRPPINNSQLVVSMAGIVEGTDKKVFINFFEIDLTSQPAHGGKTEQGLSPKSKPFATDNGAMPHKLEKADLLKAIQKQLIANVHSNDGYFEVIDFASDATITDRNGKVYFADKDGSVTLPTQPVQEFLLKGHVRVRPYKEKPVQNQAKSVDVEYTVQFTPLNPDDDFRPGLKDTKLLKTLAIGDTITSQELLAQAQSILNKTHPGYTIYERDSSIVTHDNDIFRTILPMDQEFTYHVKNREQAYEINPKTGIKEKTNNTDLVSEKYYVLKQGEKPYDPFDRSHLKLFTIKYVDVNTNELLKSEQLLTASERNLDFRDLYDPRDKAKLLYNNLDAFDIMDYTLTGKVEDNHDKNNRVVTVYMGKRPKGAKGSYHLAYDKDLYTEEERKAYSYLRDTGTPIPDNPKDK

[11] = growth suppression of PTEN-null colon cells, dose response, cell-based, HCT116 PTEN knockout (AID 1047); type: functional;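 also: HCT116 colon tumor cells with PTEN knocked out; cells exposed to compound for 60 hours before readout; potency for loss of cell viability measured by luminescence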
[12] = growth suppression of beta-catenin-knockout colon cells, dose response, cell-based, HCT116, human colon tumor (AID 1045); type: functional;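 also: HCT116 colon tumor cells with beta catenin knocked out; cells exposed to compound for 60 hours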
[13] = test system: Streptococcus; experiment: Group A Streptococcus viability loss, dose response, counter-screen for streptokinase expression inhibitor project, luminescence, BacTiterGlo (AID 1915); type: functional, organism-based;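 also: potency for reduction of bacterial viability or growth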
[14] = Luminescence Cell-Based Dose Retest to Confirm Inhibitors of Cancer Stem Cells. [Related pubchem assays (depositor defined):AID2717, AID2721]; type: functional; settings: Homo sapiens
[15] = decrease of PhoP-driven GFP reporter signal, S. Typhimurium, dose response, PhoP regulon inhibitor project, purified and synthesized compounds, set 2 (AID 2831); type: functional
[16] = biological target: T6, G-protein coupled receptor 35 (Homo sapiens, UniProt Q9HC97); experiment: SAR analysis of Agonists of the GPR35 Receptor using an Image-Based Assay - Set 4. [Related pubchem assays (depositor defined):AID2013, AID2026]; type: functional
[17] = biological target: T7, Cannabinoid receptor 1 (Homo sapiens, UniProt P21554); experiment: SAR analysis of agonists of the Cannabinoid Receptor 1 using an Image-Based Assay - Set 4. [Related pubchem assays (depositor defined):AID2013, AID2026]; type: functional
[18] = biological target: T6, G-protein coupled receptor 35; experiment: SAR analysis of Antagonists of the GPR35 Receptor using an Image-Based Assay - Set 6. [Related pubchem assays (depositor defined):AID2013, AID2026]; type: functional
[19] = biological target: T7, Cannabinoid receptor 1; experiment: SAR analysis of antagonists of the Cannabinoid Receptor 1 using an Image-Based Assay - Set 4. [Related pubchem assays (depositor defined):AID2013, AID2026]; type: functional
[20] = biological target: G-protein coupled receptor 55 (Homo sapiens, UniProt Q9Y2T6); experiment: SAR Analysis of Selective Antagonists of GPR55 using an Image-Based Assay - Set 4. [Related pubchem assays (depositor defined):AID2013, AID2026]; type: functional;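 also: antagonism of response to 5 µM lysophosphatidylinositol agonist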
[21] = biological target: T8, Cannabinoid receptor 2 (Homo sapiens, UniProt P34972); experiment: SAR analysis of antagonists of the Cannabinoid Receptor 2 using an Image-Based Assay - Set 3. [Related pubchem assays (depositor defined):AID2013, AID2026]; type: functional
[22] = biological target: T8, Cannabinoid receptor 2; experiment: SAR analysis of agonists of the Cannabinoid Receptor 2 using an Image-Based Assay - Set 3. [Related pubchem assays (depositor defined):AID2013, AID2026]; type: functional
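For AC50 in this document: cells exposed to compound for roughly 70 hours or longer before luminescence read.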

T6 sequence (Q9HC97 whole entry): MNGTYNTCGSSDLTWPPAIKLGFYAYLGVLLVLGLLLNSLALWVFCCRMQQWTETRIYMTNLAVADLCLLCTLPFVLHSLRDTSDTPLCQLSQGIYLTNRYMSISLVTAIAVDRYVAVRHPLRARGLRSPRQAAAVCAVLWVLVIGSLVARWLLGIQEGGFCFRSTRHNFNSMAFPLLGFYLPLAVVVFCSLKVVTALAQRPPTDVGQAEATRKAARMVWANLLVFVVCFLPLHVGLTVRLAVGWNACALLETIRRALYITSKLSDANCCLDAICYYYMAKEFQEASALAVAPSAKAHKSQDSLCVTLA
T7 sequence (P21554 whole entry): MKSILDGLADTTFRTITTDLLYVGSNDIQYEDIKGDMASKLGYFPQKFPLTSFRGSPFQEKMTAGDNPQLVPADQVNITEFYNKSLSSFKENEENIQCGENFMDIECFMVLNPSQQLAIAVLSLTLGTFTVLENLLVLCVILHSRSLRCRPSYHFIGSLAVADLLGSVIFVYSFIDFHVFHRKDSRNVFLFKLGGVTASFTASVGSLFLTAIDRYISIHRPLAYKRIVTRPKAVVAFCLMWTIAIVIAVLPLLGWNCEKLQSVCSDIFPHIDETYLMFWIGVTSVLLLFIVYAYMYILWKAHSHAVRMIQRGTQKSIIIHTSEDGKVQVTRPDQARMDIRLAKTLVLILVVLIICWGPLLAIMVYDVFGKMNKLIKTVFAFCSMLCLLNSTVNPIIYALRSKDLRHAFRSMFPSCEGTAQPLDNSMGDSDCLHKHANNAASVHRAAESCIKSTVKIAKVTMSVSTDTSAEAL
T8 sequence (P34972 whole entry): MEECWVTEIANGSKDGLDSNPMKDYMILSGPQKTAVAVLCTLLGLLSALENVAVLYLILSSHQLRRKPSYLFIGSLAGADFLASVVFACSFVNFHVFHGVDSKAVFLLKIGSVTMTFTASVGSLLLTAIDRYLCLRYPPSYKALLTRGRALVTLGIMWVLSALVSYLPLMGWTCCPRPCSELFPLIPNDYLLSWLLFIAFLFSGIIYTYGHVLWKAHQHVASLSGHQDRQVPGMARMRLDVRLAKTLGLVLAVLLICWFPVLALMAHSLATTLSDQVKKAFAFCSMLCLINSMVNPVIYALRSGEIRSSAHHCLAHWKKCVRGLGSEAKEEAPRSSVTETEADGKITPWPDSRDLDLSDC
Sequence of Kappa-type opioid receptor (P41145 whole entry): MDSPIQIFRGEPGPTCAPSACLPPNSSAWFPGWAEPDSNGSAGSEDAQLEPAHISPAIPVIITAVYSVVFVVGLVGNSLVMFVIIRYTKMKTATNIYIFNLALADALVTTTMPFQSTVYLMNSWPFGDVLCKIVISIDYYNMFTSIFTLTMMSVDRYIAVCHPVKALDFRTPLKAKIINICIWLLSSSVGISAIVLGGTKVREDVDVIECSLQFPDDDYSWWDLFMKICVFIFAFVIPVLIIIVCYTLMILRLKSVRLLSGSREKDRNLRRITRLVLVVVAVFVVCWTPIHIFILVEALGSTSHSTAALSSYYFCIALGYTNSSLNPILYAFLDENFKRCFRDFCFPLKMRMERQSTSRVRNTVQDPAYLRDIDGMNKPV
Sequence of Tyrosine-protein phosphatase non-receptor type 12 (Q05209 whole entry): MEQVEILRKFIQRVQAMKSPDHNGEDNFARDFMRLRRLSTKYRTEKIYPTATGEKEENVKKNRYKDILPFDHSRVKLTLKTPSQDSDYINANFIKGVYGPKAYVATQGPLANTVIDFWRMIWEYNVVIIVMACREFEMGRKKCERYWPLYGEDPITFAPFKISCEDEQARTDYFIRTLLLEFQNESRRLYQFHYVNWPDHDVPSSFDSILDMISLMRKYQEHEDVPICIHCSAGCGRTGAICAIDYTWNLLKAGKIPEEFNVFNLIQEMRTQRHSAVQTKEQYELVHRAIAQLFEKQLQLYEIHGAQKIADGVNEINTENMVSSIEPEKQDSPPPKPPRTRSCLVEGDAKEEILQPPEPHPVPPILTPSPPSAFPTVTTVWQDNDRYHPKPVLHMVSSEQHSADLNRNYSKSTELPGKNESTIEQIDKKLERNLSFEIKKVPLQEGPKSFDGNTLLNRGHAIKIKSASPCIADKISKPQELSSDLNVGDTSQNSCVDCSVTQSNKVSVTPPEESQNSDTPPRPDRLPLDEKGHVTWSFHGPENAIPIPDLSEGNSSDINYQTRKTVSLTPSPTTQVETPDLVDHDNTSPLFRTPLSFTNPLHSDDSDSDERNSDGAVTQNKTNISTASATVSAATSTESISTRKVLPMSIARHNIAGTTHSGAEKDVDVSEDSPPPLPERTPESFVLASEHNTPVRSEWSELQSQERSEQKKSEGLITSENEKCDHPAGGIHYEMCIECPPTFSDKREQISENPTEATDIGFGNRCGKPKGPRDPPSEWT
Sequence of G-protein coupled receptor 55 (Q9Y2T6 whole entry): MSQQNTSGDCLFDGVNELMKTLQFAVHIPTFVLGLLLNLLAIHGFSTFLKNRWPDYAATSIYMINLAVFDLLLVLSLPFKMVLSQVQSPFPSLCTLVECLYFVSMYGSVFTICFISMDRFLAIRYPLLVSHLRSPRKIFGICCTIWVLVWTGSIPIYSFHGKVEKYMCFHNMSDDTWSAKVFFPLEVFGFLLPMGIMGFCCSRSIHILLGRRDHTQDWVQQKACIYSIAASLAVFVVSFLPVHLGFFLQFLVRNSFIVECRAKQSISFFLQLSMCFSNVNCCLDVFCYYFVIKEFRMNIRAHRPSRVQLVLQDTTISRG

Compound: COc1cc(/C=C(\C#N)C(=O)Nc2cccc(C(=O)O)c2)ccc1OCc1ccc(C)cc1
- IC50 [1]: 22.1 µM (active)
- IC50 [2]: 2.69 µM (active)
- IC50 [3]: 5.39 µM (active)
- IC50 [4]: 2.02 µM (active)
- IC50 [5]: 14.7 µM (active)

Compound: FC(F)(F)c1cc(CSc2nnc(-c3ccccn3)n2Cc2ccccc2)ccc1Cl
- EC50 [6]: 2.22 µM (active)

Compound: CCOC(=O)c1c(C)[nH]c(C2=NN=C(Nc3ccccc3OC)SC2)c1C
- EC50 [7]: 15 µM (active)
- EC50 [8]: 15.3 µM (active)

Compound: CN1CCN(C2=Cc3cc(Cl)ccc3Sc3cc(F)ccc32)CC1
- EC50 [9]: 7.44 µM (active)
- EC50 [10]: > 150 µM (not active)
- EC50 [11]: 9.39 µM (active)
- EC50 [12]: 10.5 µM (active)
- EC50 [13]: 12 µM (active)
- AC50 [14]: 6.63 µM (active)
- IC50 [15]: > 125 µM (active)

Compound: N=c1c(C(=O)NCc2ccco2)cc2c(=O)n3ccccc3nc2n1C1CCCC1
- EC50 [16]: > 32 µM (inactive)
- EC50 [17]: > 32 µM (inactive)
- IC50 [18]: > 32 µM (inactive)
- IC50 [19]: 31.5 µM (inactive)
- IC50 [20]: 28.3 µM (inactive)
- IC50 [21]: > 32 µM (inactive)
- EC50 [22]: 2.13 µM (active)
